Measurements reported in ChEMBL document CHEMBL4308841, “Synthesis, in vitro antiproliferative activity, and kinase inhibitory effects of pyrazole-containing diarylureas and diarylamides” (Eur J Med Chem, 2018).

Legend:
[1] = tested on: ACHN; test: Growth inhibition of human ACHN cells incubated for 48 hrs by sulforhodamine B assay; format: functional, cell-based
[2] = tested on: ACHN; test: Growth inhibition of human ACHN cells assessed as cell growth at 0.01 uM incubated for 48 hrs by sulforhodamine B assay relative to control; format: functional; conditions: read-out: Activity
[3] = tested on: HT-29; test: Growth inhibition of human HT-29 cells assessed as cell growth at 0.1 uM incubated for 48 hrs by sulforhodamine B assay relative to control; format: functional; conditions: HT-29, 48 h, read-out: Activity
[4] = tested on: CCRF-CEM; test: Growth inhibition of human CCRF-CEM cells incubated for 48 hrs by sulforhodamine B assay; format: functional, cell-based
[5] = tested on: ACHN; test: Growth inhibition of human ACHN cells assessed as cell growth at 0.1 uM incubated for 48 hrs by sulforhodamine B assay relative to control; format: functional; conditions: read-out: Activity
[6] = tested on: MOLT-4; test: Growth inhibition of human MOLT4 cells assessed as cell growth at 0.01 uM incubated for 48 hrs by sulforhodamine B assay relative to control; format: functional; conditions: MOLT-4, 48 h, read-out: Activity
[7] = tested on: DU-145; test: Growth inhibition of human DU145 cells assessed as cell growth at 1 uM incubated for 48 hrs by sulforhodamine B assay relative to control; format: functional; conditions: DU-145, 48 h, read-out: Activity
[8] = tested on: HCT-15; test: Growth inhibition of human HCT15 cells assessed as cell growth at 1 uM incubated for 48 hrs by sulforhodamine B assay relative to control; format: functional; conditions: HCT-15, 48 h, read-out: Activity
[9] = tested on: NCI-H23; test: Growth inhibition of human NCI-H23 cells assessed as cell growth at 0.01 uM incubated for 48 hrs by sulforhodamine B assay relative to control; format: functional; conditions: NCI-H23, 48 h, read-out: Activity
[10] = tested on: A549; test: Growth inhibition of human A549/ATCC cells assessed as cell growth at 0.1 uM incubated for 48 hrs by sulforhodamine B assay relative to control; format: functional; conditions: A549, 48 h, read-out: Activity
[11] = tested on: SK-OV-3; test: Growth inhibition of human SKOV3 cells incubated for 48 hrs by sulforhodamine B assay; format: functional, cell-based; conditions: SK-OV-3, 48 h
[12] = tested on: UACC-257; test: Growth inhibition of human UACC257 cells assessed as cell growth at 100 uM incubated for 48 hrs by sulforhodamine B assay relative to control; format: functional; conditions: UACC-257, 48 h, read-out: Activity
[13] = tested on: OVCAR-8; test: Growth inhibition of human OVCAR8 cells assessed as cell growth at 0.01 uM incubated for 48 hrs by sulforhodamine B assay relative to control; format: functional; conditions: OVCAR-8, 48 h, read-out: Activity
[14] = tested on: Malme-3M; test: Growth inhibition of human MALME-3M cells assessed as cell growth at 100 uM incubated for 48 hrs by sulforhodamine B assay relative to control; format: functional; conditions: read-out: Activity
[15] = tested on: SK-MEL-5; test: Growth inhibition of human SK-MEL-5 cells incubated for 48 hrs by sulforhodamine B assay; format: functional, cell-based; conditions: SK-MEL-5, 48 h
[16] = tested on: SW-620; test: Growth inhibition of human SW620 cells assessed as cell growth at 100 uM incubated for 48 hrs by sulforhodamine B assay relative to control; format: functional; conditions: SW-620, 48 h, read-out: Activity
[17] = tested on: COLO 205; test: Growth inhibition of human COLO205 cells incubated for 48 hrs by sulforhodamine B assay; format: functional, cell-based; conditions: COLO 205, 48 h
[18] = tested on: NCI-H522; test: Growth inhibition of human NCI-H522 cells assessed as cell growth at 0.1 uM incubated for 48 hrs by sulforhodamine B assay relative to control; format: functional; conditions: NCI-H522, 48 h, read-out: Activity
[19] = tested on: SF-295; test: Growth inhibition of human SF295 cells assessed as cell growth at 1 uM incubated for 48 hrs by sulforhodamine B assay relative to control; format: functional; conditions: SF-295, 48 h, read-out: Activity
[20] = tested on: SNB-19; test: Growth inhibition of human SNB19 cells incubated for 48 hrs by sulforhodamine B assay; format: functional, cell-based; conditions: SNB-19, 48 h
[21] = tested on: MDA-MB-231; test: Growth inhibition of human MDA-MB-231 cells assessed as cell growth at 0.1 uM incubated for 48 hrs by sulforhodamine B assay relative to control; format: functional; conditions: MDA-MB-231, 48 h, read-out: Activity
[22] = tested on: KM12; test: Growth inhibition of human KM12 cells incubated for 48 hrs by sulforhodamine B assay; format: functional, cell-based; conditions: KM12, 48 h
[23] = tested on: NCI-H460; test: Growth inhibition of human NCI-H460 cells assessed as cell growth at 0.01 uM incubated for 48 hrs by sulforhodamine B assay relative to control; format: functional; conditions: NCI-H460, 48 h, read-out: Activity
[24] = tested on: K562; test: Growth inhibition of human K562 cells assessed as cell growth at 100 uM incubated for 48 hrs by sulforhodamine B assay relative to control; format: functional; conditions: K562, 48 h, read-out: Activity
[25] = tested on: T47D; test: Growth inhibition of human T47D cells assessed as cell growth at 0.01 uM incubated for 48 hrs by sulforhodamine B assay relative to control; format: functional; conditions: read-out: Activity
[26] = tested on: HT-29; test: Growth inhibition of human HT-29 cells incubated for 48 hrs by sulforhodamine B assay; format: functional, cell-based; conditions: HT-29, 48 h
[27] = tested on: HOP-62; test: Growth inhibition of human HOP62 cells assessed as cell growth at 0.1 uM incubated for 48 hrs by sulforhodamine B assay relative to control; format: functional; conditions: HOP-62, 48 h, read-out: Activity
[28] = tested on: HL-60(TB); test: Growth inhibition of human HL-60(TB) cells assessed as cell growth at 1 uM incubated for 48 hrs by sulforhodamine B assay relative to control; format: functional; conditions: HL-60, 48 h, read-out: Activity
[29] = read-out: LC50 (the source's name)
[30] = read-out: pLC50 (the source's name) (converted)

SMILES: COc1cc(Cl)cc(-c2nn(-c3cccc(NC(=O)Nc4cccc(C(F)(F)F)c4)c3)cc2-c2ccncc2)c1
- GI50 ([1]; read-out: GI50): 1.72 µM
- CC50 [1, 29]: > 100 µM
- TGI ([1]; read-out: TGI): 15.2 µM
- GI50 ([1]; read-out: pGI50 (converted)): 1.7 µM
- CC50 [1, 30]: > 100 µM
- TGI ([1]; read-out: pTGI (converted)): 16.2 µM
- growth at 0.01 µM [2]: 108%
- growth at 0.1 µM [3]: 95%
- GI50 ([4]; read-out: GI50): 1.2 µM
- CC50 [4, 29]: > 100 µM
- TGI ([4]; read-out: TGI): 53.6 µM
- GI50 ([4]; read-out: pGI50 (converted)): 1.2 µM
- CC50 [4, 30]: > 100 µM
- TGI ([4]; read-out: pTGI (converted)): 5.37 µM
- growth at 0.1 µM [5]: 92%
- growth at 0.01 µM [6]: 95%
- growth at 1 µM [7]: 73%
- growth at 1 µM [8]: 57%
- growth at 0.01 µM [9]: 97%
- growth at 0.1 µM [10]: 96%
- GI50 ([11]; read-out: GI50): 3.61 µM
- CC50 [11, 29]: > 100 µM
- TGI ([11]; read-out: TGI): 55.4 µM
- GI50 ([11]; read-out: pGI50 (converted)): 3.63 µM
- CC50 [11, 30]: > 100 µM
- TGI ([11]; read-out: pTGI (converted)): 58.9 µM
- growth at 100 µM [12]: -72%
- growth at 0.01 µM [13]: 97%
- growth at 100 µM [14]: -26%
- GI50 ([15]; read-out: GI50): 1.43 µM
- CC50 [15, 29]: 54.5 µM
- TGI ([15]; read-out: TGI): 25.4 µM
- GI50 ([15]; read-out: pGI50 (converted)): 1.48 µM
- CC50 [15, 30]: 5.5 µM
- TGI ([15]; read-out: pTGI (converted)): 2.82 µM
- growth at 100 µM [16]: -11%
- GI50 ([17]; read-out: GI50): 1.53 µM
- CC50 [17, 29]: 65.5 µM
- TGI ([17]; read-out: TGI): 31.7 µM
- GI50 ([17]; read-out: pGI50 (converted)): 1.51 µM
- CC50 [17, 30]: 6.61 µM
- TGI ([17]; read-out: pTGI (converted)): 3.16 µM
- growth at 0.1 µM [18]: 53%
- growth at 1 µM [19]: 45%
- GI50 ([20]; read-out: GI50): 2.77 µM
- CC50 [20, 29]: > 100 µM
- TGI ([20]; read-out: TGI): 35.9 µM
- GI50 ([20]; read-out: pGI50 (converted)): 2.75 µM
- CC50 [20, 30]: > 100 µM
- TGI ([20]; read-out: pTGI (converted)): 35.5 µM
- growth at 0.1 µM [21]: 103%
- GI50 ([22]; read-out: GI50): 0.611 µM
- CC50 [22, 29]: > 100 µM
- TGI ([22]; read-out: TGI): 47 µM
- GI50 ([22]; read-out: pGI50 (converted)): 6.17 µM
- CC50 [22, 30]: > 100 µM
- TGI ([22]; read-out: pTGI (converted)): 4.79 µM
- growth at 0.01 µM [23]: 102%
- growth at 100 µM [24]: -22%
- growth at 0.01 µM [25]: 97%
- GI50 ([26]; read-out: GI50): 1.51 µM
- CC50 [26, 29]: 25.1 µM
- TGI ([26]; read-out: TGI): 52.4 µM
- GI50 ([26]; read-out: pGI50 (converted)): 1.51 µM
- CC50 [26, 30]: 26.3 µM
- TGI ([26]; read-out: pTGI (converted)): 6.31 µM
- growth at 0.1 µM [27]: 97%
- growth at 1 µM [28]: 81%
